Data set [1] relates to Rattus norvegicus. Put plainly: Osteogenic activity in rat assessed as increase in ALP expression in calvaria at 5 mg/kg, sc qd for 3 days by qPCR analysis. It counts as functional, organism-based. Details: dose 5 mg/kg. Background: Real-time PCR tracks product formation cycle by cycle.
The subject of data set [2] is Rattus norvegicus. Put plainly: Osteogenic activity in rat assessed as increase in ALP expression in calvaria at 10 mg/kg, sc qd for 3 days by qPCR analysis. Format: functional, organism-based. Details: dose 10 mg/kg.
Data set [3] deals with Rattus norvegicus. Put plainly: Osteogenic activity in rat assessed as increase in ALP expression in calvaria administered as sc qd for 3 days by qPCR analysis. Format: functional, organism-based.
Data set [4] concerns Calvarial osteoblast. Put plainly: Osteogenic activity in rat primary calvarial osteoblasts assessed as induction of ALP activity at 1 pM after 10 days by colorimetry. Format: functional, cell-based.
Data set [5] concerns Calvarial osteoblast. Put plainly: Induction of rat calvarial osteoblast mineralization assessed as increase in formation of mineralized calcium nodules at 1 pM after 21 days by alizarin red-S staining-based assay. Format: functional, cell-based.
Data set [6] in a line: Upregulation of BMP-2 in rat primary calvarial osteoblast cells after 48 hrs by qPCR analysis relative to control. Format: functional, cell-based.
Data set [7] relates to Calvarial osteoblast. Put plainly: Osteogenic activity in rat primary calvarial osteoblasts assessed as induction of ALP activity at 1 pM to 1 uM after 10 days by colorimetry. Format: functional, cell-based.
For data set [8], the system named is Ishikawa. Put plainly: Estrogenic activity in ER expressing human Ishikawa cells assessed as induction of ALP activity at 1 pM to 1 uM in presence of 17beta-E2. It counts as functional, cell-based.
The subject of data set [9] is Calvarial osteoblast. Put plainly: Osteogenic activity in rat primary calvarial osteoblasts assessed as induction of ALP activity at 1 pM to 1 uM after 10 days by colorimetry in presence of anti-estrogen ICI-182780. It counts as functional, cell-based.
The nature of data set [10]: Toxicity in rat calvarial osteoblast cells at 1 pM to 1 uM after 48 hrs by MTT assay. Format: cell-based.
Data set [11] relates to Rattus norvegicus. Put plainly: Osteogenic activity in rat assessed as increase in collagen-1 expression in calvaria at 10 mg/kg, sc qd for 3 days by qPCR analysis. More on the design: dose 10 mg/kg. It counts as functional, organism-based.
The test system of data set [12] is Rattus norvegicus. Put plainly: Osteogenic activity in rat assessed as increase in collagen-1 expression in calvaria at 5 mg/kg, sc qd for 3 days by qPCR analysis. Format: functional, organism-based. Details: dose 5 mg/kg.
The test system of data set [13] is Ishikawa. Put plainly: Antiestrogenic activity in ER expressing human Ishikawa cells assessed as inhibition of ALP activity at 1 pM to 1 uM. It counts as functional, cell-based.
Data set [14] deals with Ishikawa. Put plainly: Estrogenic activity in ER expressing human Ishikawa cells assessed as induction of ALP activity at 1 pM to 1 uM. It counts as functional, cell-based.
Data set [15] deals with Rattus norvegicus. Put plainly: Osteogenic activity in rat assessed as increase in ALP expression in calvaria at 1 mg/kg, sc qd for 3 days by qPCR analysis. It counts as functional, organism-based. More on the design: dose 1 mg/kg.
Data set [16] has as its system Rattus norvegicus. Put plainly: Osteogenic activity in rat assessed as increase in collagen-1 expression in calvaria at 1 mg/kg, sc qd for 3 days by qPCR analysis. It counts as functional, organism-based. More on the design: dose 1 mg/kg.
Data set [17] relates to Calvarial osteoblast. Put plainly: Induction of rat calvarial osteoblast mineralization assessed as increase in formation of mineralized calcium nodules at 10 nM after 21 days by alizarin red-S staining-based assay. Format: functional, cell-based.
Data set [18] has as its system Ishikawa. Put plainly: Estrogenic activity in ER expressing human Ishikawa cells assessed as induction of ALP activity at 10 nM. It counts as functional, cell-based.
The test system of data set [19] is Calvarial osteoblast. Put plainly: Osteogenic activity in rat calvarial osteoblasts assessed as induction of ALP activity at 10 nM after 48 hrs by spectrophotometry in presence of anti-estrogen ICI-182780. Format: functional, cell-based.
Data set [20] deals with Ishikawa. Put plainly: Estrogenic activity in ER expressing human Ishikawa cells assessed as induction of ALP activity at 100 pM relative to control. It counts as functional.

SMILES strings stand for the structures. Active and inactive are the calls of the source. No cut-off for these calls is given here.

For the compound `COc1cc(OC)c(-c2coc3cc(O[C@@H]4O[C@H](CO[C@@H]5OC[C@](O)(CO)[C@H]5O)[C@@H](O)[C@H](O)[C@H]4O)c(OC)c(O)c3c2=O)cc1OC`, the result with Rattus norvegicus [1], in the data set with Calvarial osteoblast [4], in the data set with Calvarial osteoblast [5], with Calvarial osteoblast [7], in the data set on Calvarial osteoblast [9] and in the data set with Rattus norvegicus [15] was Active. Besides, the result in the data set on Rattus norvegicus [16] was Active. Moreover, the result in the data set with Rattus norvegicus [2], with Rattus norvegicus [11], with Rattus norvegicus [12], in the data set with Ishikawa [13] and in the data set with Ishikawa [14] was inactive. In addition, the Activity entry was “Dose-dependent effect” in the data set on Rattus norvegicus [3] and “Non-toxic” in data set [10]. The same compound came in with a fold change (FC) in [6] of 15. The inhibition entry with Ishikawa [8] was “inactive”.

As to `COc1cc(OC)c(-c2coc3cc(O)c(OC)c(O)c3c2=O)cc1OC`, the result in the data set on Calvarial osteoblast [7] was inactive.

Consider `COc1ccc(-c2coc3cc(O)cc(O)c3c2=O)cc1O` [PRATENSEIN], for which the result with Calvarial osteoblast [7], in the data set with Calvarial osteoblast [9] and in the data set on Calvarial osteoblast [17] was Active. Besides, the inhibition result in the data set with Ishikawa [8] was “inactive”. Moreover, the Activity result in data set [10] is reported as “Non-toxic”. Further, the outcome in the data set with Ishikawa [13] and in the data set on Ishikawa [14] was inactive.

In the case of `COc1ccc(-c2coc3cc(O)cc(O)c3c2=O)cc1` [BIOCHANIN], the result in the data set on Ishikawa [18], in the data set with Calvarial osteoblast [7] and with Calvarial osteoblast [17] was Active. Further, the result with Calvarial osteoblast [19] was inactive. The Activity entry in data set [10] was “Non-toxic”.

Regarding `C[C@]12CC[C@@H]3c4ccc(O)cc4CC[C@H]3[C@@H]1CC[C@@H]2O` [ESTRADIOL], the “fold change (FC)” value in the data set with Ishikawa [20] stood at 1.5.

On to `COC(=O)C/C(=C\c1ccc(O)c(O)c1)C(=O)O`, for which the result in the data set on Calvarial osteoblast [7] was inactive.

In the case of `C[C@@H]1O[C@@H](OC[C@H]2O[C@@H](Oc3c(-c4ccc(O)c(O)c4)oc4cc(O)cc(O)c4c3=O)[C@H](O)[C@@H](O)[C@@H]2O)[C@H](O)[C@H](O)[C@H]1O`, the outcome in the data set with Calvarial osteoblast [7] was inactive.

In the case of `O=c1c(-c2ccc(O)cc2)coc2cc(O)cc(O)c12` [GENISTEIN], the fold change (FC) in data set [6] was found to be 5. Also, the result in the data set on Calvarial osteoblast [7], with Calvarial osteoblast [9] and in the data set on Calvarial osteoblast [17] was Active. For the same compound, in the data set with Ishikawa [8], the inhibition entry was “inactive”. The Activity result in [10] is given as “Non-toxic”. Moreover, the result in the data set on Ishikawa [13] and with Ishikawa [14] was inactive.

With `COc1ccc(-c2coc3cc(O[C@@H]4O[C@H](CO[C@@H]5OC[C@](O)(CO)[C@H]5O)[C@@H](O)[C@H](O)[C@H]4O)cc(O)c3c2=O)cc1`, in the data set on Calvarial osteoblast [7], the result was inactive.

As for `COc1ccc(-c2coc3cc(O[C@@H]4O[C@H](CO[C@@H]5OC[C@](O)(CO[C@@H]6OC[C@](O)(CO)[C@H]6O)[C@H]5O)[C@@H](O)[C@H](O)[C@H]4O)cc(O)c3c2=O)cc1`, the result in the data set on Calvarial osteoblast [7] was inactive.

Turning to `O=c1c(O[C@@H]2O[C@H](CO)[C@@H](O)[C@H](O)[C@H]2O)c(-c2ccc(O)cc2)oc2cc(O)cc(O)c12`, the result in the data set on Calvarial osteoblast [7] was inactive.

Turning to `COc1cc(OC)c(-c2coc3cc(O[C@@H]4O[C@H](CO)[C@@H](O)[C@H](O)[C@H]4O)c(OC)c(O)c3c2=O)cc1OC`, the result with Calvarial osteoblast [7] was inactive.

Consider `C[C@@H]1O[C@@H](OC[C@H]2O[C@@H](Oc3c(-c4ccc(O)cc4)oc4cc(O)cc(O)c4c3=O)[C@H](O)[C@@H](O)[C@@H]2O)[C@H](O)[C@H](O)[C@H]1O`, for which the result with Calvarial osteoblast [7] was inactive.

As to `COc1cc([C@H]2OC[C@H]3[C@@H]2CO[C@@H]3c2cc(OC)c(O[C@@H]3O[C@H](CO)[C@@H](O)[C@H](O)[C@H]3O)c(OC)c2)cc(OC)c1O`, the result in the data set with Calvarial osteoblast [7] was inactive.

Regarding `O=c1c(O[C@@H]2O[C@H](CO)[C@@H](O)[C@H](O)[C@H]2O)c(-c2ccc(O)c(O)c2)oc2cc(O)cc(O)c12`, the result in the data set on Calvarial osteoblast [7] was inactive.

The values above are taken from ChEMBL document CHEMBL1944622, “Constituents of Dalbergia sissoo Roxb. leaves with osteogenic activity” (Bioorg Med Chem Lett, 2012).
